This note sets out measurements from PubChem BioAssay AID1259407 (Chemical Carcinogenesis Research Information System (CCRIS), 2018).

Activity calls are given as the source filed them. The rule behind the calls is not given here.

The data set relates to CCRIS mutagenicity, Ames/micronucleus/aberration tests. Kind of data set: CCRIS mutagenicity studies.
Where [1] appears, read: Test System: AMES SALMONELLA TYPHIMURIUM, Strain/Indicator: TA98, Metabolic Activation: NONE, Method: PREINCUBATION
Setting [2] is: Test System: AMES SALMONELLA TYPHIMURIUM, Strain/Indicator: TA100, Metabolic Activation: NONE, Method: PREINCUBATION
Setting [3] is: Test System: AMES SALMONELLA TYPHIMURIUM, Strain/Indicator: TA100, Metabolic Activation: NONE, Method: STANDARD PLATE.
[4] abbreviates: Test System: AMES SALMONELLA TYPHIMURIUM, Strain/Indicator: TA98, Metabolic Activation: NONE, Method: STANDARD PLATE.

As to `NNc1ccccc1`, the mutagenic call is, setting by setting: (End Point: IN VITRO CHROMOSOMAL ABERRATIONS, Test System: CHL CELLS, Metabolic Activation: NONE) “active; positive (structural changes)”; (End Point: IN VITRO CHROMOSOMAL ABERRATIONS, Test System: CHL CELLS, Metabolic Activation: RAT, LIVER, S-9, SODIUM PHENOBARBITAL AND 5,6-BENZOFLAVONE) “active; positive (structural changes); authors report equivocal results for ploidy chang”; under setting [1], “active; positive”; (Test System: AMES SALMONELLA TYPHIMURIUM, Strain/Indicator: TA98, Metabolic Activation: RAT LIVER S-9, PHENOBARBITAL AND BETA-NAPHTHOFLAVONE, Method: PREINCUBATION) “active; positive”; under setting [2], “inactive; negative”; under setting [3], “active; positive”. Also, the mutagenic call is “active; positive” (Test System: AMES SALMONELLA TYPHIMURIUM, Strain/Indicator: TA100, Metabolic Activation: RAT KIDNEY, MICROSOMES, Method: STANDARD PLATE); “inactive; negative” (Test System: AMES SALMONELLA TYPHIMURIUM, Strain/Indicator: TA100, Metabolic Activation: RAT LIVER S-9, PHENOBARBITAL AND BETA-NAPHTHOFLAVONE, Method: PREINCUBATION); “active; positive” (Test System: AMES SALMONELLA TYPHIMURIUM, Strain/Indicator: TA1530, Metabolic Activation: NONE, Method: STANDARD PLATE); “inactive; negative” (Test System: AMES SALMONELLA TYPHIMURIUM, Strain/Indicator: TA1535, Metabolic Activation: NONE, Method: PREINCUBATION); “inactive; negative” (Test System: AMES SALMONELLA TYPHIMURIUM, Strain/Indicator: TA1535, Metabolic Activation: RAT LIVER S-9, PHENOBARBITAL AND BETA-NAPHTHOFLAVONE, Method: PREINCUBATION); “inactive; negative” (Test System: AMES SALMONELLA TYPHIMURIUM, Strain/Indicator: TA1535, Metabolic Activation: RAT, LIVER, S-9, AROCLOR 1254, Method: PREINCUBATION). The mutagenic call runs as follows: (Test System: AMES SALMONELLA TYPHIMURIUM, Strain/Indicator: TA1537, Metabolic Activation: NONE, Method: PREINCUBATION) “active; positive”; (Test System: AMES SALMONELLA TYPHIMURIUM, Strain/Indicator: TA1537, Metabolic Activation: RAT LIVER S-9, PHENOBARBITAL AND BETA-NAPHTHOFLAVONE, Method: PREINCUBATION) “active; positive”; (Test System: AMES SALMONELLA TYPHIMURIUM, Strain/Indicator: TA1537, Metabolic Activation: RAT, LIVER, S-9, AROCLOR 1254, Method: PREINCUBATION) “active; positive”; (Test System: AMES SALMONELLA TYPHIMURIUM, Strain/Indicator: TA2638, Metabolic Activation: NONE, Method: STANDARD PLATE) “active; positive”; (Test System: E. COLI, Strain/Indicator: WP2 (PKM101), Metabolic Activation: NONE, Method: STANDARD PLATE) “active; positive”; (Test System: E. COLI, Strain/Indicator: WP2 UVRA (PKM101), Metabolic Activation: NONE, Method: STANDARD PLATE) “active; positive”. Moreover, the mutagenic call reads like this: (Test System: E.COLI, Strain/Indicator: WP2UVRA, Metabolic Activation: NONE, Method: PREINCUBATION) “active; positive”; (Test System: E.COLI, Strain/Indicator: WP2UVRA, Metabolic Activation: RAT LIVER S-9, PHENOBARBITAL AND BETA-NAPHTHOFLAVONE, Method: PREINCUBATION) “active; positive”.
For the compound `Oc1ccc2sc3ccccc3c2c1`, the mutagenic call (Test System: CHINESE HAMSTER OVARY, Strain/Indicator: CHO-K1-BH4 (HGPRT)/6-THIOGUANINE, Metabolic Activation: RAT, LIVER, S-9, AROCLOR (4%)) was “active; positive”.
`O=S(=O)(Nc1ccc(Cl)cc1Cl)c1cccc2cccnc12`: the mutagenic call was “inactive; negative” under setting [4]; “inactive; negative” (Test System: AMES SALMONELLA TYPHIMURIUM, Strain/Indicator: TA98, Metabolic Activation: RAT, LIVER, S-9, AROCLOR 1254, Method: STANDARD PLATE); “inactive; negative” under setting [3]; “inactive; negative” (Test System: AMES SALMONELLA TYPHIMURIUM, Strain/Indicator: TA100, Metabolic Activation: RAT, LIVER, S-9, AROCLOR 1254, Method: STANDARD PLATE); “inactive; negative” (Test System: AMES SALMONELLA TYPHIMURIUM, Strain/Indicator: TA1535, Metabolic Activation: NONE, Method: STANDARD PLATE); “inactive; negative” (Test System: AMES SALMONELLA TYPHIMURIUM, Strain/Indicator: TA1535, Metabolic Activation: RAT, LIVER, S-9, AROCLOR 1254, Method: STANDARD PLATE). In addition, the mutagenic call is, setting by setting: (Test System: AMES SALMONELLA TYPHIMURIUM, Strain/Indicator: TA1537, Metabolic Activation: NONE, Method: STANDARD PLATE) “inactive; negative”; (Test System: AMES SALMONELLA TYPHIMURIUM, Strain/Indicator: TA1537, Metabolic Activation: RAT, LIVER, S-9, AROCLOR 1254, Method: STANDARD PLATE) “inactive; negative”.
With `CCCCCC/C=C\CCCCCCOC(C)=O`, the mutagenic call runs as follows: under setting [4], “inactive; negative”; (Test System: AMES SALMONELLA TYPHIMURIUM, Strain/Indicator: TA98, Metabolic Activation: RAT, LIVER, S-9, Method: STANDARD PLATE) “inactive; negative”; under setting [3], “inactive; negative”; (Test System: AMES SALMONELLA TYPHIMURIUM, Strain/Indicator: TA100, Metabolic Activation: RAT, LIVER, S-9, Method: STANDARD PLATE) “inactive; negative”; (Test System: AMES SALMONELLA TYPHIMURIUM, Strain/Indicator: TA102, Metabolic Activation: NONE, Method: STANDARD PLATE) “inactive; negative”; (Test System: AMES SALMONELLA TYPHIMURIUM, Strain/Indicator: TA102, Metabolic Activation: RAT, LIVER, S-9, Method: STANDARD PLATE) “inactive; negative”.
`COc1cc2c(c3oc(=O)c4c(c13)CCC4=O)[C@H]1[C@@H](O2)O[C@@H]2O[C@@H]21`: the mutagenic call by setting is: under setting [1], “active; positive”; (Test System: AMES SALMONELLA TYPHIMURIUM, Strain/Indicator: TA98, Metabolic Activation: RAT, LIVER, S-9, AROCLOR 1254, Method: PREINCUBATION) “active; positive”; (Test System: AMES SALMONELLA TYPHIMURIUM, Strain/Indicator: TA100, Metabolic Activation: NONE, Method: MICROSUSPENSION) “active; positive”; under setting [2], “active; positive”; (Test System: AMES SALMONELLA TYPHIMURIUM, Strain/Indicator: TA100, Metabolic Activation: RAT, LIVER, S-9, AROCLOR 1254, Method: MICROSUSPENSION) “active; positive”; (Test System: AMES SALMONELLA TYPHIMURIUM, Strain/Indicator: TA100, Metabolic Activation: RAT, LIVER, S-9, AROCLOR 1254, Method: PREINCUBATION) “active; positive”.
For `O=[N+]([O-])c1ccc2ccc3cc4c(c5ccc1c2c35)[C@H](O)[C@@H](O)C=C4`, the mutagenic call is “active; positive” (Test System: AMES SALMONELLA TYPHIMURIUM, Strain/Indicator: TA98(1,8-DNP6), Metabolic Activation: NONE); “active; positive” (Test System: AMES SALMONELLA TYPHIMURIUM, Strain/Indicator: TA98(1,8-DNP6), Metabolic Activation: RAT, LIVER, S-9, AROCLOR 1254); “active; positive” (Test System: AMES SALMONELLA TYPHIMURIUM, Strain/Indicator: TA98(NR), Metabolic Activation: NONE); “active; positive” (Test System: AMES SALMONELLA TYPHIMURIUM, Strain/Indicator: TA98(NR), Metabolic Activation: RAT, LIVER, S-9, AROCLOR 1254); “active; positive” (Test System: AMES SALMONELLA TYPHIMURIUM, Strain/Indicator: TA98, Metabolic Activation: NONE); “active; positive” (Test System: AMES SALMONELLA TYPHIMURIUM, Strain/Indicator: TA98, Metabolic Activation: RAT, LIVER, S-9, AROCLOR 1254). For the same compound, the mutagenic call was “inactive; negative” (Test System: CHINESE HAMSTER OVARY, Strain/Indicator: CHO-K1-BH4 (HGPRT), Metabolic Activation: NONE) and “inactive; negative” (Test System: CHINESE HAMSTER OVARY, Strain/Indicator: CHO-K1-BH4 (HGPRT), Metabolic Activation: RAT, LIVER, S-9, 3-METHYLCHOLANTHRENE).
